From ChEMBL document CHEMBL4665709, “Rational Avoidance of Protease Cleavage Sites and Symmetrical End-Tagging Significantly Enhances the Stability and Therapeutic Potential of Antimicrobial Peptides” (J Med Chem, 2020)
≈ marks a conversion by molar mass, not a printed value. Where a SMILES comes first, the peptide text is derived from it.

What was measured:
[1] = tested on: Staphylococcus aureus; assay: Antibacterial activity against methicillin-resistant Staphylococcus aureus 43300 after 18 to 24 hrs by CLSI-based broth microdilution method; type: functional; conditions: time hrs 18-24
[2] = tested on: Staphylococcus aureus; assay: Antibacterial activity against Staphylococcus aureus 11011 after 18 to 24 hrs by CLSI-based broth microdilution method; type: functional; conditions: time hrs 18-24
[3] = Therapeutic index, ratio of MHC for human RBC to geometric mean of peptide MIC for Escherichia coli UB1005; type: toxicity; conditions: human red blood cells (RBC), read-out: TI
[4] = Cytotoxicity against mouse RAW264.7 cells assessed as cell viability at 128 uM by MTT assay relative to control; type: cell-based; conditions: read-out: Activity
[5] = tested on: Escherichia coli; assay: Antibacterial activity against Escherichia coli ATCC 25922 after 18 to 24 hrs in presence of 100% human serum by CLSI-based broth microdilution method; type: functional; conditions: time hrs 18-24
[6] = tested on: Staphylococcus aureus; assay: Antibacterial activity against Staphylococcus aureus ATCC 29213 after 18 to 24 hrs in presence of 6 uM Fe3+ by CLSI-based broth microdilution method; type: functional; conditions: time hrs 18-24
[7] = tested on: Salmonella typhimurium; assay: Antibacterial activity against Salmonella typhimurium 7731 after 18 to 24 hrs by CLSI-based broth microdilution method; type: functional, Salmonella enterica subsp. enterica serovar Typhimurium; conditions: Salmonella enterica, time hrs 18-24
[8] = Therapeutic index, ratio of MHC for human RBC to geometric mean of peptide MIC for Salmonella typhimurium 14028; type: toxicity; conditions: human red blood cells (RBC), read-out: TI
[9] = Therapeutic index, ratio of MHC for human RBC to geometric mean of peptide MIC for Salmonella typhimurium 7731; type: toxicity; conditions: human red blood cells (RBC), read-out: TI
[10] = tested on: Salmonella enterica; assay: Antibacterial activity against Salmonella choleraesuis 503 after 18 to 24 hrs by CLSI-based broth microdilution method; type: functional; conditions: time hrs 18-24
[11] = tested on: Escherichia coli; assay: Antibacterial activity against Escherichia coli ATCC 25922 after 18 to 24 hrs in presence of 150 mM Na+ by CLSI-based broth microdilution method; type: functional; conditions: time hrs 18-24
[12] = tested on: Staphylococcus aureus; assay: Antibacterial activity against Staphylococcus aureus ATCC 29213 after 18 to 24 hrs in presence of 6 uM NH4+ by CLSI-based broth microdilution method; type: functional; conditions: time hrs 18-24
[13] = tested on: Salmonella typhimurium; assay: Antibacterial activity against Salmonella typhimurium 14028 after 18 to 24 hrs by CLSI-based broth microdilution method; type: functional, Salmonella enterica subsp. enterica serovar Typhimurium; conditions: Salmonella enterica, time hrs 18-24
[14] = tested on: Escherichia coli; assay: Antibacterial activity against Escherichia coli ATCC 25922 after 18 to 24 hrs in presence of 1 mM Mg2+ by CLSI-based broth microdilution method; type: functional; conditions: time hrs 18-24
[15] = tested on: Staphylococcus aureus; assay: Antibacterial activity against Staphylococcus aureus ATCC 29213 after 18 to 24 hrs in presence of 150 mM Na+ by CLSI-based broth microdilution method; type: functional; conditions: time hrs 18-24
[16] = tested on: Escherichia coli; assay: Antibacterial activity against Escherichia coli ATCC 25922 after 18 to 24 hrs in presence of 8 uM Zn2+ by CLSI-based broth microdilution method; type: functional; conditions: time hrs 18-24
[17] = tested on: Escherichia coli; assay: Antibacterial activity against Escherichia coli ATCC 25922 after 18 to 24 hrs by CLSI-based broth microdilution method; type: functional; conditions: time hrs 18-24
[18] = Therapeutic index, ratio of MHC for human RBC to geometric mean of peptide MIC for Salmonella pullorum 7913; type: toxicity; conditions: human red blood cells (RBC), read-out: TI
[19] = tested on: Escherichia coli; assay: Antibacterial activity against Escherichia coli ATCC 25922 after 18 to 24 hrs in presence of 25% human serum by CLSI-based broth microdilution method; type: functional; conditions: time hrs 18-24
[20] = tested on: Streptococcus agalactiae; assay: Antibacterial activity against Streptococcus agalactiae H92 after 18 to 24 hrs by CLSI-based broth microdilution method; type: functional; conditions: time hrs 18-24
[21] = Therapeutic index, ratio of MHC for human RBC to geometric mean of peptide MIC for Escherichia coli ATCC 25922; type: toxicity; conditions: human red blood cells (RBC), read-out: TI
[22] = tested on: Staphylococcus aureus; assay: Antibacterial activity against Staphylococcus aureus ATCC 29213 after 18 to 24 hrs by CLSI-based broth microdilution method; type: functional; conditions: time hrs 18-24
[23] = tested on: Escherichia coli; assay: Antibacterial activity against Escherichia coli ATCC 25922 after 18 to 24 hrs in presence of 6 uM Fe3+ by CLSI-based broth microdilution method; type: functional; conditions: time hrs 18-24
[24] = tested on: Staphylococcus aureus; assay: Antibacterial activity against Staphylococcus aureus ATCC 29213 after 18 to 24 hrs in presence of 50% human serum by CLSI-based broth microdilution method; type: functional; conditions: time hrs 18-24
[25] = tested on: Staphylococcus aureus; assay: Antibacterial activity against Staphylococcus aureus ATCC 29213 after 18 to 24 hrs in presence of 100% human serum by CLSI-based broth microdilution method; type: functional; conditions: time hrs 18-24
[26] = tested on: Staphylococcus aureus; assay: Antibacterial activity against Staphylococcus aureus ATCC 29213 after 18 to 24 hrs in presence of 8 uM Zn2+ by CLSI-based broth microdilution method; type: functional; conditions: time hrs 18-24
[27] = Antibacterial activity against Salmonella pullorum 7913 after 18 to 24 hrs by CLSI-based broth microdilution method; type: functional, Salmonella enterica subsp. enterica serovar Pullorum; conditions: Salmonella enterica, time hrs 18-24
[28] = Hemolytic activity in human RBC assessed as hemolysis at 1 to 128 uM relative to control; type: ADME, cell-based, Erythrocyte; conditions: human red blood cells (RBC), dose 1-128 µM, read-out: Activity
[29] = tested on: Escherichia coli; assay: Antibacterial activity against Escherichia coli ATCC 25922 after 18 to 24 hrs in presence of 6 uM NH4+ by CLSI-based broth microdilution method; type: functional; conditions: time hrs 18-24
[30] = Therapeutic index, ratio of MHC for human RBC to geometric mean of peptide MIC for methicillin-resistant Staphylococcus aureus 43300; type: toxicity; conditions: human red blood cells (RBC), read-out: TI
[31] = tested on: Staphylococcus aureus; assay: Antibacterial activity against Staphylococcus aureus ATCC 29213 after 18 to 24 hrs in presence of 1 mM Mg2+ by CLSI-based broth microdilution method; type: functional; conditions: time hrs 18-24
[32] = tested on: Staphylococcus epidermidis; assay: Antibacterial activity against Staphylococcus epidermidis ATCC 12228 after 18 to 24 hrs by CLSI-based broth microdilution method; type: functional; conditions: time hrs 18-24
[33] = Therapeutic index, ratio of MHC for human RBC to geometric mean of peptide MIC for Staphylococcus aureus ATCC 29213; type: toxicity; conditions: human red blood cells (RBC), read-out: TI
[34] = Stability of compound at 100 degreeC after 30 to 90 mins; type: physicochemical; conditions: time 30-90 min
[35] = tested on: Enterococcus faecalis; assay: Antibacterial activity against Enterococcus faecalis ATCC 29212 after 18 to 24 hrs by CLSI-based broth microdilution method; type: functional; conditions: time hrs 18-24
[36] = Cytotoxicity against HEK-293T cells assessed as cell viability at 128 uM by MTT assay relative to control; type: cell-based; conditions: human, read-out: Activity
[37] = Therapeutic index, ratio of MHC for human RBC to geometric mean of peptide MIC for Enterococcus faecalis ATCC 29212; type: toxicity; conditions: human red blood cells (RBC), read-out: TI
[38] = tested on: Erythrocyte; assay: Hemolytic activity in human RBC assessed as hemolysis; type: ADME, cell-based
[39] = Therapeutic index, ratio of MHC for human RBC to geometric mean of peptide MIC for Staphylococcus aureus 11011; type: toxicity; conditions: human red blood cells (RBC), read-out: TI
[40] = tested on: Staphylococcus aureus; assay: Antibacterial activity against Staphylococcus aureus ATCC 29213 after 18 to 24 hrs in presence of 4.5 mM K+ by CLSI-based broth microdilution method; type: functional; conditions: time hrs 18-24
[41] = Therapeutic index, ratio of MHC for human RBC to geometric mean of peptide MIC for Salmonella choleraesuis 503; type: toxicity; conditions: human red blood cells (RBC), read-out: TI
[42] = tested on: Escherichia coli; assay: Antibacterial activity against Escherichia coli ATCC 25922 after 18 to 24 hrs in presence of 50% human serum by CLSI-based broth microdilution method; type: functional; conditions: time hrs 18-24
[43] = tested on: Escherichia coli; assay: Antibacterial activity against Escherichia coli ATCC 25922 after 18 to 24 hrs in presence of 4.5 mM K+ by CLSI-based broth microdilution method; type: functional; conditions: time hrs 18-24
[44] = tested on: Escherichia coli; assay: Antibacterial activity against Escherichia coli UB1005 after 18 to 24 hrs by CLSI-based broth microdilution method; type: functional; conditions: time hrs 18-24
[45] = tested on: Staphylococcus aureus; assay: Antibacterial activity against Staphylococcus aureus ATCC 29213 after 18 to 24 hrs in presence of 25% human serum by CLSI-based broth microdilution method; type: functional; conditions: time hrs 18-24
[46] = Therapeutic index, ratio of MHC for human RBC to geometric mean of peptide MIC for Staphylococcus epidermidis ATCC 12228; type: toxicity; conditions: human red blood cells (RBC), read-out: TI
[47] = Therapeutic index, ratio of MHC for human RBC to geometric mean of peptide MIC for Streptococcus agalactiae H92; type: toxicity; conditions: human red blood cells (RBC), read-out: TI

## CC[C@H](C)[C@H](N)C(=O)N[C@H](C(=O)N[C@@H](CS)C(=O)N[C@@H](CCCNC(=N)N)C(=O)N[C@@H](CCCCN)C(=O)N1CCC[C@H]1C(=O)N[C@H](C(=O)N[C@H](C(=O)N[C@@H](CS)C(=O)N[C@@H](CCCNC(=N)N)C(=O)N[C@@H](CCCCN)C(=O)N1CCC[C@H]1C(=O)N[C@H](C(=O)N[C@H](C(=O)N[C@@H](CS)C(=O)N[C@@H](CCCNC(=N)N)C(=O)N[C@@H](CCCCN)C(=O)N1CCC[C@H]1C(=O)N[C@H](C(=O)N[C@H](C(=O)N[C@@H](CS)C(=O)N[C@@H](CCCNC(=N)N)C(=O)N[C@@H](CCCCN)C(=O)N1CCC[C@H]1C(=O)N[C@H](C(=O)N[C@H](C(N)=O)[C@@H](C)CC)[C@@H](C)CC)[C@@H](C)CC)[C@@H](C)CC)[C@@H](C)CC)[C@@H](C)CC)[C@@H](C)CC)[C@@H](C)CC)[C@@H](C)CC (H-IICRKPIICRKPIICRKPIICRKPII-NH2)
[1]
  MIC: 16 µM (≈ 49.4 µg/mL)
[2]
  MIC: 16 µM (≈ 49.4 µg/mL)
[3]
  selectivity ratio: 50.8
[4]
  viability at 128 µM: > 90%
[5]
  MIC: 16 µM
[6]
  MIC: 32 µM
[7]
  MIC: 2 µM (≈ 6.17 µg/mL)
[8]
  selectivity ratio: 50.8
[9]
  selectivity ratio: 50.8
[10]
  MIC: 4 µM (≈ 12.3 µg/mL)
[11]
  MIC: 8 µM
[12]
  MIC: 32 µM
[13]
  MIC: 2 µM (≈ 6.17 µg/mL)
[14]
  MIC: 8 µM
[15]
  MIC: 64 µM
[16]
  MIC: 2 µM
[17]
  MIC: 2 µM (≈ 6.17 µg/mL)
[18]
  selectivity ratio: 50.8
[19]
  MIC: 4 µM
[20]
  MIC: 16 µM (≈ 49.4 µg/mL)
[21]
  selectivity ratio: 50.8
[22]
  MIC: 32 µM (≈ 98.8 µg/mL)
[23]
  MIC: 2 µM
[24]
  MIC: 64 µM
[25]
  MIC: 64 µM
[26]
  MIC: 32 µM
[27]
  MIC: 8 µM (≈ 24.7 µg/mL)
[28]
  hemolysis at up to 128 µM: < 5%
[29]
  MIC: 2 µM
[30]
  selectivity ratio: 6.35
[31]
  MIC: 64 µM
[32]
  MIC: 16 µM (≈ 49.4 µg/mL)
[33]
  selectivity ratio: 6.35
[34]
  Stabilty: Stable
[35]
  MIC: 32 µM (≈ 98.8 µg/mL)
[36]
  viability at 128 µM: > 90%
[37]
  selectivity ratio: 6.35
[38]
  MHC: > 128 µM
[39]
  selectivity ratio: 6.35
[40]
  MIC: 64 µM
[41]
  selectivity ratio: 50.8
[42]
  MIC: 4 µM
[43]
  MIC: 2 µM
[44]
  MIC: 1 µM (≈ 3.09 µg/mL)
[45]
  MIC: 64 µM
[46]
  selectivity ratio: 6.35
[47]
  selectivity ratio: 6.35
